Measurements as given in the OligoGym collection.
Bases are written 5' to 3'; sugars and linkages follow in the same order, as letters with counts (s phosphorothioate, o phosphodiester; PS: all linkages phosphorothioate). The collection does not say whether C is 5-methylated. l = locked nucleic acid (LNA); d = 2'-deoxy (DNA)

Each sequence was assayed against Tau (assay: rat primary cortical neurons, FLIPR, 25 uM ASO).

Sequence	calcium oscillation score
TGTACACGATCTCCGC (sugars l3 d10 l3, PS)	145 % of control
ACTGCTCAGCTAAGACCCTC (sugars l3 d14 l3, PS)	23.9 % of control
CGCTTCCAGTCCCGTC (sugars l3 d10 l3, PS)	15.7 % of control
TGGATATAGTTAAGGC (sugars l4 d8 l4, PS)	117 % of control
AATACATCAATAGAAGGCAA (sugars l3 d14 l3, PS)	16.1 % of control
CTTGGGTGGAGTACGGACCA (sugars l3 d14 l3, PS)	0 % of control
GTTGCCTAATGAGCCA (sugars l3 d10 l3, PS)	46.1 % of control
CCCCATTTATCCTTCATG (sugars l2 d14 l2, PS)	49.4 % of control
AAACTCATTTACCAATTAT (sugars l4 d11 l4, PS)	70.7 % of control
AACATCTAAACACCTCAA (sugars l4 d10 l4, PS)	78.9 % of control
ATGAGCACTAACTCTAAGTA (sugars l3 d14 l3, PS)	4.76 % of control
TTTTCTTGTTCTAACCCC (sugars l2 d13 l3, PS)	50.1 % of control
CCCTTAGACATAACACA (sugars l3 d12 l2, PS)	65.5 % of control
ACGCACCAGGAACCTTCCAG (sugars l3 d14 l3, PS)	36.7 % of control
GCCACCTCCTGGTTTA (sugars l3 d10 l3, PS)	86.1 % of control
TCTTGTGATGCAGGA (sugars l3 d9 l3, PS)	91.8 % of control
TTTATCCCTCCATGATT (sugars l2 d12 l3, PS)	58.8 % of control
TCATTCAGCCAATCACA (sugars l3 d11 l3, PS)	45.6 % of control
AATAAGAAAGGAACGC (sugars l3 d10 l3, PS)	110 % of control
ACTCAAATCAATTCTCATTT (sugars l4 d12 l4, PS)	70.1 % of control
CCTTAATTTCACCCT (sugars l3 d9 l3, PS)	140 % of control
ACCCTTACACATAGCTTC (sugars l2 d13 l3, PS)	53.9 % of control
TCATAAATGACTATACTTAT (sugars l3 d14 l3, PS)	80.6 % of control
AACTTCTAATTTAGTC (sugars l4 d8 l4, PS)	81.9 % of control
TGATTGTGGGCTTAGG (sugars l3 d10 l3, PS)	2.71 % of control
CAATCCTAAACAATGC (sugars l4 d8 l4, PS)	45.4 % of control
TCTAATTTAGTCACCAT (sugars l4 d10 l3, PS)	96 % of control

Sequence	calcium oscillation score
ACTTTATTTCCAAATTCACT (sugars l5 d11 l4, PS)	138 % of control
AAACATCTAAACACCTCAAT (sugars l4 d12 l4, PS)	78.9 % of control
TAACCAACTTTCATCTAC (sugars l4 d10 l4, PS)	98.4 % of control
GTCGATGCTGCCGGTG (sugars l3 d10 l3, PS)	0 % of control
CCACTACAAGCTCCACAT (sugars l2 d14 l2, PS)	50 % of control
GGGAGATTCTTTCAGGCCAG (sugars l3 d14 l3, PS)	48.1 % of control
CCCGGAACTCTCAACTCCTC (sugars l3 d14 l3, PS)	18.1 % of control
TTCACTTAGTAACCAA (sugars l4 d8 l4, PS)	62 % of control
GAATAACATTAACCCT (sugars l4 d8 l4, PS)	74.5 % of control
ATTTTACTACTCTCTTT (sugars l4 d9 l4, PS)	82 % of control
ATTCATTTTACTTTACTTT (sugars l4 d11 l4, PS)	64.6 % of control
CCACTTTACTTTGCAAC (sugars l4 d11 l2, PS)	55.8 % of control
CCACCATACTTGACTTC (sugars l3 d12 l2, PS)	91.6 % of control
TGGTCAAGGCTTTGGG (sugars l3 d10 l3, PS)	0 % of control
TTGCTTTTCCCAATTAT (sugars l4 d11 l2, PS)	54.5 % of control
CCTGGTTTATGATGGATGTT (sugars l3 d14 l3, PS)	0 % of control
AATACAAACAGCCTCCC (sugars l2 d12 l3, PS)	61.6 % of control
ATTAACCGAACTGCGA (sugars l3 d10 l3, PS)	10.9 % of control
AGCCACACTTGGAGGTCACC (sugars l3 d14 l3, PS)	0 % of control
ACTTTATTTCCAAATTCACTTTTAC (sugars llddldddddddddddddddllddl, PS)	17.7 % of control
TAATTAGAAACCTCCT (sugars l4 d8 l4, PS)	73.3 % of control
ACATCCTGCCATACCA (sugars l3 d11 l2, PS)	45 % of control
CACATGCTCACACACCAC (sugars l2 d13 l3, PS)	97.5 % of control
ATCTTAATTCATTTAATTCT (sugars l4 d12 l4, PS)	93.1 % of control
TACCAATTATCTTTAAATTC (sugars l4 d12 l4, PS)	64.4 % of control
TTTGATAAAACATCCC (sugars l4 d8 l4, PS)	89 % of control
GTAGACTATTTGCAC (sugars l3 d9 l3, PS)	95.2 % of control
